The record followed here is patent publication US6503709B1, “Methods for rapidly detecting methicillin resistant staphylococci” (priority 1997, dated 2003).

≈ marks a conversion by molar mass, not a printed value. {Fluorescein} = fluorescein label; {Biotin} = biotin label; d = 2'-deoxy (DNA); r = 2'-OH (RNA)

The test system of data set [1] is mecA gene. Nature of the data set: Non-isotopic CPT assay (CPT-EIA) on crude lysates of clinical isolates. The data set is classed as biochemical, Staphylococcus aureus. Particulars: n = 51, subtractive CPT assay. An excerpt:
The non-isotopic MRSA Assay which combines CPT with an enzyme immunoassay (CPT-EIA) is schematically illustrated in FIG. 3. This Rapid MRSA Test uses a fluoresceinated and biotinylated chimeric probe which provides an RNase H sensitive scissile linkage when bound to the complementary base sequence of the mecA gene. The uncleaved probe (mecA negative) is detected by binding of the probe to a solid surface and attachment of an antibody conjugated with horse radish peroxidase, which converts a substrate to a colored end product. Cleavage of the probe (mecA positive) prevents binding of the probe-antibody complex to the solid surface thus preventing formation of the colored end product. A result is generated in 90 minutes.
Effective lysis of both MRSA and MSSA were developed and optimized. The composition of the Lysis Reagent is as follows: 200 Units/ml of achromopeptidase (Wako Bioproducts, Wako), 0.02 mg/ml lysostaphin (Sigma, St. Louis, Mo.), 0.05% (v/v) Triton X 100® and 20 mM TES buffer, pH 8.5. […]
After cycling, 100 μl of Binding Reagent (Peroxidase Stabilizing Buffer, DAKO, Mississauga, ON), sheep polyclonal anti-fluorescein-horse radish peroxidase conjugated antibody (1/750 dilution, NEN, Boston, Mass.) was added to the tubes. […] The plate is read using a Vmax plate reader (Molecular Devices) set at OD of 650 nm (OD650).

A further data set relates to mecA 227 bp amplicon. Nature of the data set: PCR followed by CPT-EIA detection of amplicon. The data set is classed as biochemical, Staphylococcus aureus. As to the method: Crude lysates of MSSA (ATCC 11632) and MRSA (ATCC 33592) strains were grown overnight at 37° C. on tryptic soy agar with 5% sheep blood (PML Microbiologicals, Tualatin, Oreg.). A cell suspension was made in TES buffer (20 mM TES (pH 6.8), 0.05% Triton X-100) to obtain a cell density equivalent to a 5×McFarland#5 standard of turbidity (7.5×10^9 cells/ml). The cells were lysed with 150 U/ml achromopeptidase (Wako ) for 25 min at 37° C. After lysis, the cells were stored at −20° C. Adequate dilutions were made in deionized sterile water.
The PCR reaction was carried out in a 25 μl reaction containing 20 mM Tris,(pH 8.3) 1.5 MM MgCl2 0.2 mM dNTPs (Pharmacia), 6.25 pmol of each primer (Table 1) and 0.5 U AmpliTaq Gold (Perkin Elmer). The PTC-100 Programmable Thermal Cycler (MJ Research, Inc.) was used with the following PCR program: 95° C. for 10 min., 20×(94° C. for 40 s, 53° C. for 40 s and 72° C. for 1.5 min). The reaction was submitted to a final extension step at 72° C. for 5 min. and then held at 4° C. prior to analysis. PCR reactions were analyzed by CPT as described below or using a 2% agarose gel and ethidium bromide (Et-Br) staining.
The 227 bp mecA PCR product was used as a standard to determine the sensitivity of CPT-EIA and Et-Br stained gels. The amplicon was prepared as follows: several 100 μl reactions were subjected to 30 cycle PCR and the amplicon was purified using a Qiagen PCR purification kit as recommended by the manufacturer. The 227 bp product was quantified by spectrophometer and used as a standard.
CPT-EIA. The 25 μl PCR reaction was heat denatured at 95° C. for 2 min and then placed at 54° C. The CPT components in 25 μl were added to the PCR reaction to give a CPT reaction volume of 50 μl. […]

Data set [2] relates to mecA gene. Nature of the data set: CPT Direct Fluorescence Assay (CPT-DFA) on crude lysates. Format: biochemical, Staphylococcus aureus. How it is done:
Two experiments were carried out for the detection of the mecA gene from clinical isolates using the direct fluorescence assay (DFA) combined with CPT (CPT-DFA). In the first experiment, 58 isolates were screened using a plate reader format, and in the second experiment, 120 isolates were screened using single tube reader format. Briefly, the assay uses a fluoresceinated and biotinylated chimeric probe complementary to a sequence within the mecA gene present in MRSA, but not in MSSA. The probe is labeled with fluorescein at the 5′ end and biotin at the 3′ end. The CPT assay is performed with crude lysate preparations from Staphylococcal cells in the presence of RNase H and the chimeric probe. After the cycling reaction, streptavidin coated magnetic beads are added to bind the uncleaved probe. The supernatant containing the cleaved fragment labeled with fluorescein is separated from the beads using a magnet and the supernatant is transferred to a glass tube or a microtiter plate for fluorescence measurement.
The source of the fifty-eight clinical isolates were obtained from Cleveland Hospital, Wishard Memorial and Vancouver General Hospital. All MRSA and MSSA cells were prepared and lysed essentially as described in Example 4 except that the lysates were prepared as either 2×McFarland No. 5 standard density or 1 μl loop of cells in 50 μl volume. One μl loop of cells is approximately equivalent to 5×McFarland No. 5 standard.
The streptavidin coated magnetic beads (Dynal M-280, Oslo, Norway) were prepared by washing two times in an equal volume of TES cycling buffer (4 mM MgCl2, 0.05% Triton X-100®, 20 mM TES, pH 6.8). The beads were then re-suspended in 10 times the original volume with cycling buffer containing NaCl. The diluted beads were added to the reactions containing biotinylated probe to a final concentration of 50 μg of beads/reaction and a final NaCl concentration of 1.5 M. Binding was carried out in a thermomixer (Eppendorf) at 37° C. with mixing at a speed of 13×100 minutes^−, for 10 minutes. The supernatant was then separated from the beads using an MPC magnet (Dynal).
Probe was detected after binding using the Fluoroskan fluorescence plate reader (Labsystems, Needham. Mass.) by placing the supernatant containing the cleaved probe in a well of MicroFluor ‘U’ black round bottom plate (Dynatech, Chantilly, Va.). To each well containing a sample, 150 μl of 0.22 M DEA pH 10 was added. Any bubbles in the wells were removed using the edge of a Kimwipe (Roswell, Ga.). The plate was scanned in the plate reader with an excitation wavelength of 485 nm, an emission wavelength of 538 nm and a scan/well time of 20×0.1 sec, at room temperature. Similar detection using the Beacon-2000 tube reader (Panvera, Madison, Wis.) was performed, by placing the supernatant containing the probe in a borosilicate glass tube (Kimble, Toledo, Ohio), that contains 11 μl of 2.0 M DEA, pH 10. The samples were then vortexed and the fluorescence intensity was measured using the static mode of the Beacon-2000 instrument. The excitation and emission wavelengths were 485 nm and 515 nm respectively and an average of 10 read cycles at 25° C. was used.
The assay used a chimeric probe FmecA945-29(XL)4B3 (SEQ ID NO:5) labeled with fluorescein at the 5′ end and three biotin at the 3′ end. Cycling reactions with crude lysate were performed in a 50 PI reaction containing 25 μl of crude lysates. The lysates were denatured at 95° C. for 2 minutes. CPT reaction was carried out and the final conditions were as follows: 1 pmol chimeric probe, 25 μl of crude lysates, 50 μM EDTA, 0.5 mM spermine, 1.5 μg of RNase H in a final reaction volume of 50 μl. All reactions were cycled in a 60° C. water bath, in microcentrifuge tubes (uncapped) for 50 minutes. Reactions were stopped with the addition of an equal volume of diluted beads (50 μg of beads/reaction in Cycling Buffer and NaCl), while still in the water bath. Binding and detection were carried out as described above. […]

Data set [3] relates to borderline oxacillin resistant S. aureus (BORSA) isolates. Nature of the data set: Minimal inhibitory concentration (MIC) using E-Test. Format: cell-based. As to conditions: Staphylococcus aureus. How it is done:
(§1) The crude lysate preparations, probe synthesis, CPT procedure and analyses were carried out as described in Example 4 except that the cells were picked from the TSA blood plate with a 1 μl plastic loop (PML Microbiological, Richmond, BC, Canada) resuspended in 50 μl of 0.05% Triton X-100® in 20 mM TES buffer (pH 6.8) and lysed with the addition of achromopeptidase (Wako Bioproducts) as described in Example 4. The DNA was heat denatured at 95° C. for 5 minutes prior to use. The experiment was carried out as an operator blind study. The isolates were also tested with conventional oxacillin screening agar (PML Microbiological), Kirby-Bauer Disc diffusion, minimal inhibitory concentration (MIC) using E-Test with 4% NaCl Meuller-Hinton and S. aureus were tested with the BBL® Crystal™ MRSA ID test (Beckton Dickinson).

For data set [4] the test system is unchanged. Nature of the data set: Disk diffusion, oxacillin in the presence of clavulanic acid. Format: cell-based, Staphylococcus aureus. How it is done: as §1
The mark [5] stands for this setting: 58 isolates, Fluoroskan plate reader, relative to culture and PCR resolution.
Setting [6] is: 120 isolates, 1 pmol probe, Beacon-2000 tube fluorometer.
[7] abbreviates: 120 isolates, Beacon-2000 tube fluorometer.

For the molecule “FmecA945-29B (DNA AATAGAGAAAAAGAAAAAAGATGGCAAAG; sugars from the 5' end d13 r4 d12, 5' {Fluorescein}, 3' {Biotin}, backbone and methylation of C not given here; further chemistry not fully specified)”, the results for the “A650 nm Mean” value in the data set with mecA gene [1] (MRSA clinical isolate lysates) and in the data set on mecA gene [1] (MSSA clinical isolate lysates) were 0.053 and 0.239, respectively. For the same molecule, the “starting MRSA cells whose amplicon CPT-EIA could detect” value with mecA 227 bp amplicon (20 cycle PCR, serial dilution of crude lysates) is at least 100 cells. Also, the probe cleaved in the data set with mecA 227 bp amplicon (100 MRSA cell equivalent samples, 20 cycle PCR) amounted to 80%. The “number of times the target is cycled in CPT” value in the data set on mecA 227 bp amplicon (100 MRSA cell equivalents, assuming 100% PCR efficiency (175 amol)) is listed as “at least 50”.

Turning to “FmecA945-29(XL)4B3 (DNA AATAGAGAAAAAGAAAAAAGATGGCAAAG; fluorescein and biotin labels, chimeric DNA/RNA, further chemistry not given here)”, in the data set on mecA gene [2] (setting [5]), the “sensitivity for detection of the mecA gene” value stood at 100% and the “specificity for detection of the mecA gene” value is 100%. For the same molecule, in the data set on mecA gene [2] (setting [6]), the “range of fluorescence of MRSA samples” value is 144.2-191.9 and the “range of fluorescence of MSSA samples” value was 58.1-101.7 RFU. Besides, in the data set with mecA gene [2] (setting [7]), the “net gap between the highest MSSA sample and the lowest MRSA” value came to 42.5 RFU; the sensitivity turned out to be 100%; the specificity amounted to 98%.

In the case of `Cc1onc(-c2ccccc2)c1C(=O)N[C@@H]1C(=O)N2[C@@H]1SC(C)(C)[C@@H]2C(=O)O` [oxacillin], the MIC in data set [3] (4 S. aureus isolates lacking mecA, oxacillin agar screen positive) is 3 to 16 µg/mL (≈ 7.47 to 39.9 µM); in data set [3] (additional 31 S. aureus isolates lacking mecA, E test) it was 3 to 12 µg/mL (≈ 7.47 to 29.9 µM). The “susceptibility by disk diffusion” value in data set [4] was “susceptible”.
